Test results: patent publication US9845326B2, “Substituted 3,4-dihydropyrrolo[1,2-A]pyrazines as beta-secretase (BACE) inhibitors” (priority 2011, dated 2017)

How the values were obtained:
BACE1 = BACE1 (Homo sapiens, UniProt P56817); assay: Biochemical FRET based assay; settings: Biochemical FRET based assay pIC50, recombinant BACE1 1 μg/ml, 120 min, room temperature, pH 5.0
From the text: This assay is a Fluorescence Resonance Energy Transfer Assay (FRET) based assay. The substrate for this assay is an APP derived 13 amino acids peptide that contains the ‘Swedish’ Lys-Met/Asn-Leu mutation of the amyloid precursor protein (APP) β-secretase cleavage site. This substrate also contains two fluorophores: (7-methoxy-coumarin-4-yl) acetic acid (Mca) is a fluorescent donor with excitation wavelength at 320 nm and emission at 405 nm and 2,4-Dinitrophenyl (Dnp) is a proprietary quencher acceptor. […] Upon cleavage by BACE1, the fluorophore Mca is separated from the quenching group Dnp, restoring the full fluorescence yield of the donor. The increase in fluorescence is linearly related to the rate of proteolysis (Koike H et al. J. Biochem. 1999, 126, 235-242).
Briefly in a 384-well format recombinant BACE1 protein in a final concentration of 1 μg/ml is incubated for 120 min at room temperature with 10 μm substrate in incubation buffer (40 mM Citrate buffer pH 5.0, 0.04% PEG, 4% DMSO) in the absence or presence of compound. Next the amount of proteolysis is directly measured by fluorescence measurement at T=0 and T=120 (excitation at 320 nm and emission at 405 nm). Results are expressed in RFU, as difference between T120 and T0
From this an IC50 value (inhibitory concentration causing 50% inhibition of activity) can be obtained.

Aβ42 [1] = assay: Cellular αlisa assay in SKNBE2 cells, Aβ42; type: cell-based, human; settings: Homo sapiens, SKNBE2, 18 h, SKNBE2 cells expressing hAPP695, 18 hours incubation; read-out: Cellular αlisa assay in SKNBE2 cells Aβ42 pIC50 (converted)
Method: (§1) In two αlisa assays the levels of Aβtotal and Aβ42 produced and secreted into the medium of human neuroblastoma SKNBE2 cells are quantified. The assay is based on the human neuroblastoma SKNBE2 expressing the wild type Amyloid Precursor Protein (hAPP695). The compounds are diluted and added to these cells, incubated for 18 hours and then measurements of Aβ42 and Aβtotal are taken. Aβtotal and Aβ42 are measured by sandwich αlisa. αlisa is a sandwich assay using biotinylated antibody AbN/25 attached to streptavidin coated beads and antibody Ab4G8 or cAb42/26 conjugated acceptor beads for the detection of Aβtotal and Aβ42 respectively. In the presence of Aβtotal or Aβ42, the beads come into close proximity. The excitation of the Donor beads provokes the release of singlet oxygen molecules that triggers a cascade of energy transfer in the Acceptor beads, resulting in light emission. Light emission is measured after 1 hour incubation (excitation at […] and emission at 615 nm).
(§2) From this an […] value (inhibitory concentration causing 50% inhibition of activity) can be obtained.

Aβtotal [2] = assay: Cellular αlisa assay in SKNBE2 cells, Aβtotal; type: cell-based, human; settings: Homo sapiens, SKNBE2, 18 h, SKNBE2 cells expressing hAPP695, 18 hours incubation; read-out: Cellular αlisa assay in SKNBE2 cells Aβtotal pIC50 (converted)
Method: as §1, §2

Aβ42 [3] = assay: In vivo efficacy: brain Aβ42 lowering (ELISA); design: species or system mouse; settings: 30 mg/kg, p.o., 4 h. after administration, soluble fraction
From the text: (§3) To determine whether acute administration of an Aβ42 peptide lowering agent would reduce Aβ peptide levels in vivo, non-transgenic rodents, e.g. mice or rats were used. Animals treated with the Aβ peptide lowering agent were examined and compared to those untreated or treated with vehicle and brain levels of soluble Aβ42 and total Aβ were quantitated by standard techniques, for example, using ELISA. Treatment periods varied from hours (h) to days and were adjusted based on the results of the Aβ42 lowering once a time course of onset of effect could be established.
(§4) A typical protocol for measuring Aβ42 lowering in vivo is shown but it is only one of many variations that could be used to optimize the levels of detectable Aβ. […] After a certain time, usually 2 or 4 h (as indicated in Table 7), the animals were sacrificed and Aβ42 levels were analysed.
(§5) Blood was collected by decapitation and exsanguinations in EDTA-treated collection tubes. […] The left hemisphere was stored at −18° C. for quantitative analysis of test compound levels. […]
(§6) Mouse brains from non-transgenic animals were resuspended in 8 volumes of 0.4% DEA (diethylamine)/50 mM NaCl containing protease inhibitors (Roche-11873580001 or 04693159001) per gram of tissue, e.g. for 0.158 g brain, add 1.264 ml of 0.4% DEA. […] Nine parts of supernatant were neutralized with 1 part 0.5 M Tris-HCl pH 6.8 and used to quantify Aβtotal and Aβ42. […]

Aβtotal [4] = assay: In vivo efficacy: brain Aβtotal lowering (ELISA); design: species or system mouse; settings: 30 mg/kg, p.o., 4 h. after administration, soluble fraction
From the text: as §3, §4, §5, §6

Chain of BACE1 (P56817 46-501): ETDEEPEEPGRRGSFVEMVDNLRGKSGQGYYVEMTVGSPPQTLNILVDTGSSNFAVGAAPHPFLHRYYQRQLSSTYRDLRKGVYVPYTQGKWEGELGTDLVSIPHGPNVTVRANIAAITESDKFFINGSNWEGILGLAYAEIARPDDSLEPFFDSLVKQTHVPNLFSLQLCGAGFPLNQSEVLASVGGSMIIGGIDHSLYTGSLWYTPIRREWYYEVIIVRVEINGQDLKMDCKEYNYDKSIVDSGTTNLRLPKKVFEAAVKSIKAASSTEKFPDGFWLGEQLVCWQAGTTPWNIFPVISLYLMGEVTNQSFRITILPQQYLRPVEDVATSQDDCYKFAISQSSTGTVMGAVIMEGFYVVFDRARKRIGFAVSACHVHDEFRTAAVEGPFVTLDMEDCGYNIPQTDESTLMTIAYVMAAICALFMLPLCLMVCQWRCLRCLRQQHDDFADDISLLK

C[C@@]1(c2cc(NC(=O)c3ccc(F)cn3)ccc2F)Cn2cc(F)cc2C(N)=N1 [Compound 7, (R)-5-Fluoro-pyridine-2-carboxylic acid [3-(1-amino-7-fluoro-3-methyl-3,4-dihydro-pyrrolo[1,2-a]pyrazin-3-yl)-4-fluoro-phenyl]-amide]
IC50 (BACE1): 41.7 nM | IC50 (Aβ42 [1]): 6.61 nM | IC50 (Aβtotal [2]): 5.62 nM | Aβ42 (%Ctrl)_Mean (Aβ42 [3]): 73 %Ctrl | Aβtotal (%Ctrl)_Mean (Aβtotal [4]): 99 %Ctrl
